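Briefly, cells in 96-well plates were exposed to five compound concentrations for 48 h, and endpoints were estimated by linear interpolation. GI50: concentration for 50% inhibition of growth. Definition used: TGI = concentration required for complete inhibition of growth.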
How the values were obtained:
Assay in all cases: DTP human tumour cell line panel, 48 h
[1] = system: HOP-62 NSCLC
[2] = system: KM12 colon
[3] = system: MCF7 breast
[4] = system: MOLT-4 leukemia
[5] = system: NCI-H226 lung
[6] = system: NCI/ADR-RES ovarian
[7] = system: RPMI-8226 leukemia
[8] = system: SF-295 CNS
[9] = system: SK-MEL-28 melanoma
[10] = system: SNB-75 CNS

SMILES | TGI [1] | TGI [2] | TGI [3] | TGI [4] | TGI [5] | TGI [6] | TGI [7] | TGI [8] | TGI [9] | TGI [10] | GI50 [3] | GI50 [6]
O=C(O)/C=C(/CC(=O)O)C(=O)O | 40.1 µM | 61.2 µM | 39.3 µM | 38.4 µM | 45.6 µM | 46.1 µM | 37 µM | 37.8 µM | 43.7 µM | 33.1 µM |  | 
COP(=O)(OC)C(N)CCSC (configuration not stated) | > 100 µM | > 100 µM | > 100 µM | > 100 µM | > 100 µM | > 100 µM | > 100 µM | > 100 µM | > 100 µM | > 100 µM |  | 
O=C(/C=C/c1ccc(-c2ccccc2[N+](=O)[O-])o1)NCc1ccc(C(=O)NCCc2ccccc2)cc1 | > 100 µM | > 100 µM | > 100 µM | > 100 µM | > 100 µM | > 100 µM | > 100 µM | > 100 µM | > 100 µM | > 100 µM |  | 
N#Cc1c(Nc2ccc(F)cc2)[n+]([O-])c2ccc(Cl)cc2[n+]1[O-] | 42.2 µM | > 100 µM | 6.1 µM | 9.09 µM | 28.8 µM | 5.37 µM | 9.97 µM | 4.95 µM | > 100 µM | 74.6 µM |  | 
S=C(N/N=C\C=N/NC(=S)N1CCCCCC1)N1CCCCCC1 | > 60.9 µM | > 100 µM | > 100 µM | > 100 µM | > 100 µM | > 85.9 µM | > 100 µM | > 100 µM | > 100 µM | > 100 µM |  | 
CCOC(=O)c1ccc(C(=O)C(C(C)=O)C(=O)OC(C)(C)C)n1C (configuration not stated) | > 100 µM | > 100 µM | > 100 µM | > 100 µM | > 100 µM | > 100 µM | > 100 µM | > 100 µM | > 100 µM | > 100 µM |  | 
COc1ccc(/C=C/c2cc(O)cc(OC)c2)cc1 | > 100 µM | > 100 µM | > 100 µM | > 100 µM | > 100 µM | > 100 µM | 78.7 µM | > 100 µM | > 100 µM | > 100 µM |  | 
O=C(CC(O)(C(F)(F)F)C(F)(F)F)C(CCCl)C(O)(C(F)(F)F)C(F)(F)F (configuration not stated) | > 100 µM | > 100 µM | > 100 µM | > 100 µM | > 100 µM | 46.7 µM | 61.1 µM | > 100 µM | > 100 µM | 96.4 µM |  | 
CCCCC[C@@H]1OCO[C@@]2(C)/C=C(C)/C=C/C(=O)O[C@H]([C@@H](C)[C@@H](O)[C@H](C)[C@@]3(O)C[C@@H](O[C@H]4C[C@@H](O)[C@H](O)[C@@H](C)O4)[C@H](C)[C@@H](C)O3)[C@@H](OC)/C=C/C=C(\C)C[C@@H]1[C@@H]2O (stereo in doubt) | 7.02 µM | 5.36 µM | 3.32 µM | 0.809 µM | 0.0468 µM | 15.8 µM | 50 µM | 0.0563 µM | 1.68 µM | 2.64 µM |  | 
CC1(C)O[C@@H](CO)[C@H]([C@@]23OC[C@H]4OC(C)(C)OC4[C@@H]2OC(C)(C)O3)O1 (some centres not stated) | > 100 µM | > 100 µM | > 100 µM | > 100 µM | > 100 µM | > 100 µM | > 100 µM | > 100 µM | > 100 µM | > 100 µM |  | 
C/C(=N\NC(N)=O)C(CN1CCCCC1)C(c1ccccc1)c1c(O)c2ccccc2oc1=O (configuration not stated) | > 100 µM | > 100 µM | > 100 µM | > 94.4 µM | > 100 µM | > 100 µM | > 100 µM | > 100 µM | > 100 µM | > 100 µM | > 100 µM | > 100 µM
